ChEMBL document CHEMBL1201862, “PubChem BioAssay data set” (2004)
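Compound exposure: 48 hours, 5 concentrations, 96-well plates. GI50 is the concentration that inhibits growth by half.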 Active and inactive are the calls of the source. No stated cut-off is given here; in the data, active = GI50 up to about 1.1 µM and inactive = higher.

Columns and labels:
Test in all cases: DTP human tumour cell line panel, 48 h
NCI-H460 = test system: NCI-H460
PC-3 = test system: PC-3
SR = test system: SR
SK-OV-3 = test system: SK-OV-3
HT-29 = test system: HT-29
BT-549 = test system: BT-549
CCRF-CEM = test system: CCRF-CEM
OVCAR-5 = test system: OVCAR-5
HL-60 = test system: HL-60
NCI/ADR-RES = test system: NCI/ADR-RES
HCT-15 = test system: HCT-15
SNB-75 = test system: SNB-75
TK-10 = test system: TK-10
CAKI-1 = test system: CAKI-1
SNB-19 = test system: SNB-19
A498 = test system: A498
COLO 205 = test system: COLO 205
OVCAR-4 = test system: OVCAR-4
UACC-62 = test system: UACC-62
SF-268 = test system: SF-268

Structure (SMILES) | GI50 (NCI-H460) | GI50 (PC-3) | GI50 (SR) | GI50 (SK-OV-3) | GI50 (HT-29) | GI50 (BT-549) | GI50 (CCRF-CEM) | GI50 (OVCAR-5) | GI50 (HL-60) | GI50 (NCI/ADR-RES) | GI50 (HCT-15) [µM] | GI50 (SNB-75) | GI50 (TK-10) | GI50 (CAKI-1) | GI50 (SNB-19) | GI50 (A498) | GI50 (COLO 205) | GI50 (OVCAR-4) | GI50 (UACC-62) | GI50 (SF-268)
O=C1C2Cc3c(n(C(=O)c4ccccc4)c4ccccc34)CC2C(=O)N1c1ccc(Nc2ccc(N3C(=O)C4Cc5c(n(C(=O)c6ccccc6)c6ccccc56)CC4C3=O)cc2)cc1 (stereo not given) | > 100 µM (inactive) | > 100 µM (inactive) | 44.4 µM (inactive) | > 100 µM (inactive) | > 100 µM (inactive) | > 100 µM (inactive) | 40.4 µM (inactive) | > 100 µM (inactive) | 8.85 µM (inactive) | > 100 µM (inactive) | > 100 | > 100 µM (inactive) | > 100 µM (inactive) | > 100 µM (inactive) | > 100 µM (inactive) | > 100 µM (inactive) | > 100 µM (inactive) | > 100 µM (inactive) | 61 µM (inactive) | > 100 µM (inactive)
OCc1ccn2c1[C@@H](O)CC2 | > 100 µM (inactive) | > 100 µM (inactive) | > 100 µM (inactive) | > 100 µM (inactive) | > 100 µM (inactive) | > 100 µM (inactive) | > 100 µM (inactive) | > 100 µM (inactive) | > 100 µM (inactive) | > 100 µM (inactive) | > 100 | > 100 µM (inactive) | > 100 µM (inactive) | > 100 µM (inactive) | > 100 µM (inactive) | > 100 µM (inactive) | > 100 µM (inactive) | > 100 µM (inactive) | > 100 µM (inactive) | > 100 µM (inactive)
O=C1c2cccc3cccc(c23)C(=O)N1CCCNOCCONCCCN1C(=O)c2cccc3cccc(c23)C1=O | 59.4 µM (inactive) | 55.1 µM (inactive) | 81.7 µM (inactive) | > 100 µM (inactive) | 92.5 µM (inactive) | 73.3 µM (inactive) | 11.8 µM (inactive) | > 100 µM (inactive) | 4.84 µM (inactive) | 12.7 µM (inactive) | 44 | 42.6 µM (inactive) | > 100 µM (inactive) | 49.3 µM (inactive) | 47.9 µM (inactive) | > 100 µM (inactive) | 83.8 µM (inactive) | 86.3 µM (inactive) | > 100 µM (inactive) | 79.4 µM (inactive)
